For assay [1], the target named is T1, CYP3A4 (Homo sapiens, UniProt P08684). Briefly: Determination of IC50 against CYP3A4 by measurement of inhibition of midazolam metabolism (human liver microsomes, 1-hydroxymidazolam by LC-MS/MS). It is filed as biochemical. Also noted: 0.1 mg/mL human liver microsomes. Conditions: 2 μM midazolam, 0.1 mg/mL human liver microsomes. Here is the method:
3. Determination of IC50 Against CYP3A4 by Measurement of Inhibition of Midazolam Metabolism
This assay was performed using a standard 96 well plate design. […] The incubation substrate mix contains 2 μM midazolam, 0.1 mg/mL human liver microsomes, 1 mM NADPH, and potassium phosphate buffer (100 mM, pH 7.4). Quantitation of metabolite peak area ratio against internal standard is determined by LC-MS/MS analysis. The production of 1-hydroxymidazolam from midazolam metabolism is determined after incubation for eight minutes by comparison to a standard curve generated for the metabolite.
Samples were analyzed in the MRM mode using a Sciex API 3000 mass spectrometer (Applied Biosystems, Foster City, Calif.) with a Paradigm MS4 binary pump (Michrom BioResources Inc., Auburn, Calif.) and a LEAP CTC PAL autosampler (LEAP Technologies, Carrboro, N.C.). A Phenomenex Synergi, 4μ, Polar-RP, 10×2.0 mm column (Phenomenex, Torrance, Calif.) was used for separation with a mobile phase composition of: 0.1% formic acid in water (A) and: 0.1% formic acid in methanol (B). The following gradient was used: […]
The sample injection volume was 10 μL and flow was split post-column with 0.4 mL/min going to the mass spectrometer. Analysis was performed using the following API 3000 mass spectrometer settings: […]

For assay [2], the target named is T1, CYP3A4. The assay is described as follows: Determination of compound Kiapp against recombinant CYP3A4 enzyme (BFC fluorescent substrate). It is filed as biochemical. Here is the method: 1. Determination of compound Kiapp
A determination of the Kiapp of the compounds of the invention against recombinant CYP3A4 enzyme was performed as follows. The assay was performed in a 100 mM sodium phosphate buffer pH 7.0, 5 mM TCEP and containing 2% dimethylformamide (final concentration) upon addition of substrate and inhibitor. A typical reaction for the determination of Kiapp values was carried at room temperature in a solid black Costar u-bottom 96-well polypropylene plate. In each well, recombinant CYP3A4 enzyme (5.5 nM or 8 nM, final concentration depending on the commercial source of the enzyme) was pre-incubated in the presence of the inhibitor for at least 30 minutes in the assay buffer. When pre-incubation was completed (˜30 min), the reaction was initiated by adding NADPH (200 uM, final concentration), and 7-benzyloxy-4-(trifluoromethyl)-coumarin (BFC) (5 uM, final concentration). The oxidation of the coumarin substrate was recorded by a 96-well plate reader POLARstar (BMG LABTECH, Offenburg, Germany).
The initial reaction velocities were measured during the first 5 min of the reaction when the release of the fluorescent product is linear with time, in the absence and in the presence of various concentrations of inhibitors. For non-partial & partial inhibitors, the Kiapp values were determined by using the equation for tight-binding inhibitor developed by Morrison, J F (Morrison J F. Biochim Biophys Acta. 1969, 185: 269-86) and by Szedlaseck S E et al. (Szedlascek, S. E., Ostafe, V., Serban, M., and Vlad, M.O. Biochem. J. 1988, 254:311-312), respectively.
The fluorescent substrate BFC was purchased from Sigma (St Louis, Mo.). Two commercial sources of recombinant enzymes were used in this study: recombinant CYP3A4−b5 enzyme (Baculosomes®) was purchased from Invitrogen (Carlsbad, Calif.) and the recombinant CYP3A4+b5 enzyme (Supersomes®) was purchased from BD Biosciences (Woburn, Mass.).

Where [3] appears, read: Baculo. enzyme preparation, read-out: Kiapp (BFC, Baculo.).
The mark [4] stands for this setting: Super. enzyme preparation, read-out: Kiapp (BFC, Super.).

The structures appear in SMILES notation. pIC50, pKi: −log10 of the molar value. Like-named read-outs stand apart in the source and are kept apart here.

T1 sequence (P08684 whole entry): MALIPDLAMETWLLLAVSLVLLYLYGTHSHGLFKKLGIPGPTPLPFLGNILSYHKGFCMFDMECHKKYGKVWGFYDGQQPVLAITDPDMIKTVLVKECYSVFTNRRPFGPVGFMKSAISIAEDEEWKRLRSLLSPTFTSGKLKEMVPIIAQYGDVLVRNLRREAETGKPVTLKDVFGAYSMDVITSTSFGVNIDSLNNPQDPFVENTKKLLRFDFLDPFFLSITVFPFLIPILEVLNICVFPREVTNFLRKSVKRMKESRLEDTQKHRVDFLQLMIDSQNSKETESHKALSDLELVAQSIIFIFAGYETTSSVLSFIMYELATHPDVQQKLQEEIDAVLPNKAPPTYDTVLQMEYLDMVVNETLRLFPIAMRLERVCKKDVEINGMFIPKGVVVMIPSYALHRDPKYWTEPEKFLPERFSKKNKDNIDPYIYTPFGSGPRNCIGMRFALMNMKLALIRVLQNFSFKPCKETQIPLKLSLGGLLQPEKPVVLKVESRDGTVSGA

A word on the pIC50: it is −log10 of the IC50, conventionally taken in molar units. Consider `Cc1cncc(NS(=O)(=O)c2ccccc2C(=O)NCc2ccc(C#N)cc2Cl)c1` [Example 91, N-(2-chloro-4-cyanobenzyl)-2-{[(5-methylpyridin-3-yl)amino]sulfonyl}benzamide], for which, at CYP3A4 [1], the pIC50 is 7.74. In addition, the pKi on CYP3A4 [2] (setting [3]) was 7.24; on CYP3A4 [2] (setting [4]) it was 7.76.
The corresponding values for `Cc1cncc(NS(=O)(=O)c2ccccc2C(=O)NC(C(C)C)C(C)C)c1` [Example 92, N-(1-isopropyl-2-methylpropyl)-2-{[(5-methylpyridin-3-yl)amino]sulfonyl}benzamide] are 7.66, 7.34 and 7.76.
Consider `COc1ccccc1CNC(=O)c1ccccc1S(=O)(=O)Nc1cncc(C)c1` [Example 93, N-(2-methoxybenzyl)-2-{[(5-methylpyridin-3-yl)amino]sulfonyl}benzamide], for which the negative logarithm of the IC50 (pIC50) at CYP3A4 [1] is 8.00. Besides, the values for the pKi on CYP3A4 [2] (setting [3]) and on CYP3A4 [2] (setting [4]) were 6.78 and 7.83, respectively.
The corresponding values for `Cc1cncc(NS(=O)(=O)c2ccccc2C(=O)NCc2ccc3c(c2)CCO3)c1` [Example 94, N-(2,3-dihydro-1-benzofuran-5-ylmethyl)-2-{[(5-methylpyridin-3-yl)amino]sulfonyl}benzamide] are 7.80, 6.74 and 7.59.
With `Cc1cncc(NS(=O)(=O)c2ccccc2C(=O)NC(C)CC(C)C)c1` (stereo not drawn) [Example 95, N-(1,3-dimethylbutyl)-2-{[(5-methylpyridin-3-yl)amino]sulfonyl}benzamide], at CYP3A4 [1], the negative logarithm of the IC50 (pIC50) was 8.10. For the same compound, the values for the pKi on CYP3A4 [2] (setting [3]) and at CYP3A4 [2] (setting [4]) were 7.11 and 7.60, respectively.
Turning to `CC[C@H](C)CNC(=O)c1ccccc1S(=O)(=O)Nc1cncc(OC)c1` [Example 96, 2-{[(5-methoxypyridin-3-yl)amino]sulfonyl}-N-[(2S)-2-methylbutyl]benzamide], the pIC50 on CYP3A4 [1] is 8.05. Moreover, the pKi is 6.91 at CYP3A4 [2] (setting [3]) and 7.65 at CYP3A4 [2] (setting [4]).
The like results for `COc1cncc(NS(=O)(=O)c2ccccc2C(=O)N(Cc2nccn2C)C(C)C)c1` [Example 97, N-isopropyl-2-{[(5-methoxypyridin-3-yl)amino]sulfonyl}-N-[(1-methyl-1H-imidazol-2-yl)methyl]benzamide] were, in that order, 6.97, 6.38 and 6.80.
The like results for `COc1cncc(NS(=O)(=O)c2ccccc2C(=O)N(CCO)C(C)C)c1` [Example 98, N-(2-hydroxyethyl)-N-isopropyl-2-{[(5-methoxypyridin-3-yl)amino]sulfonyl}benzamide] were, in that order, 7.29, 6.30 and 6.71.
In the case of `COc1cncc(NS(=O)(=O)c2ccccc2C(=O)N(CC(C)O)C(C)C)c1` (stereo not drawn) [Example 99, N-(2-hydroxypropyl)-N-isopropyl-2-{[(5-methoxypyridin-3-yl)amino]sulfonyl}benzamide], the pIC50 at CYP3A4 [1] is 7.05. Besides, the pKi was 6.39 on CYP3A4 [2] (setting [3]) and 6.65 on CYP3A4 [2] (setting [4]).
In the case of `CCCN(C(=O)c1ccccc1S(=O)(=O)Nc1cncc(OC)c1)C(C)C` [Example 100, N-isopropyl-2-{[(5-methoxypyridin-3-yl)amino]sulfonyl}-N-propylbenzamide], the negative logarithm of the IC50 (pIC50) on CYP3A4 [1] is 7.85. In addition, the pKi at CYP3A4 [2] (setting [3]) is 7.05; at CYP3A4 [2] (setting [4]), 7.45.
Take `CC[C@@H](C)NC(=O)c1ccccc1S(=O)(=O)Nc1cncc(OC)c1` [Example 101, 2-{[(5-methoxypyridin-3-yl)amino]sulfonyl}-N-[(1R) -1-methylpropyl]benzamide]: the pIC50 on CYP3A4 [1] was 7.59. The pKi on CYP3A4 [2] (setting [3]) was 6.61; at CYP3A4 [2] (setting [4]), 7.26.
The like results for `CC[C@H](C)NC(=O)c1ccccc1S(=O)(=O)Nc1cncc(OC)c1` [Example 102, 2-{[(5-methoxypyridin-3-yl)amino]sulfonyl}-N-[(1S) -1-methylpropyl]benzamide] were, in that order, 7.26, 6.43 and 7.25.
The corresponding values for `CCOc1ccncc1NS(=O)(=O)c1ccccc1C(=O)N(C)Cc1cccc(F)c1` [Example 103, 2-{[(4-ethoxypyridin-3-yl)amino]sulfonyl}-N-(3-fluorobenzyl)-N-methylbenzamide] are 7.68, 6.89 and 7.59.
The like results for `COc1ccncc1NS(=O)(=O)c1ccccc1C(=O)N(C)Cc1cccc(F)c1` [Example 104, N-(3-fluorobenzyl)-2-{[(4-methoxypyridin-3-yl)amino]sulfonyl}-N-methylbenzamide] were, in that order, 7.46, 6.85 and 7.63.
Consider `CCOc1ccncc1NS(=O)(=O)c1ccccc1C(=O)NC(C)(C)CC` [Example 105, N-(1,1-dimethylpropyl)-2-{[(4-ethoxypyridin-3-yl)amino]sulfonyl}benzamide], for which the negative-log IC50 (pIC50) on CYP3A4 [1] was 7.68. The pKi on CYP3A4 [2] (setting [3]) is 7.08; at CYP3A4 [2] (setting [4]) it was 7.54.
The corresponding values for `CCC(C)(C)NC(=O)c1ccccc1S(=O)(=O)Nc1cnccc1OC` [Example 106, N-(1,1-dimethylpropyl)-2-{[(4-methoxypyridin-3-yl)amino]sulfonyl}benzamide] are 7.29, 6.46 and 7.06.
As for `CCOc1ccncc1NS(=O)(=O)c1ccccc1C(=O)N[C@@H](C)C(C)C` [Example 107, N-[(1S)-12-dimethylpropyl]-2-{[(4-ethoxypyridin-3-yl)amino]sulfonyl}benzamide], the pIC50 on CYP3A4 [1] is 7.24. Further, the pKi on CYP3A4 [2] (setting [3]) was 6.67; at CYP3A4 [2] (setting [4]), 7.36.
Turning to `COc1ccncc1NS(=O)(=O)c1ccccc1C(=O)N[C@@H](C)C(C)C` [Example 108], at CYP3A4 [1], the pIC50 was 7.01. The pKi at CYP3A4 [2] (setting [3]) was 6.30; at CYP3A4 [2] (setting [4]), 6.94.
The corresponding values for `CCN(C(=O)c1ccccc1S(=O)(=O)Nc1cncc(OC)c1)C(C)C` [Example 109, N-ethyl-N-isopropyl-2-{[(5-methoxypyridin-3-yl)amino]sulfonyl}benzamide] are 7.46, 6.67 and 7.43.
The like results for `CCOc1ccncc1NS(=O)(=O)c1ccccc1C(=O)N[C@H](C)C(C)C` [Example 110, N-[(1R)-12-dimethylpropyl]-2-{[(4-ethoxypyridin-3-yl)amino]sulfonyl}benzamide] were, in that order, 7.59, 6.81 and 7.30.
As to `COc1cncc(NS(=O)(=O)c2ccc(OC)cc2C(=O)NCc2ccc(F)cc2)c1` [Example 111, N-(4-fluorobenzyl)-5-methoxy-2-{[(5-methoxypyridin-3-yl)amino]sulfonyl}benzamide], the pIC50 at CYP3A4 [1] is 8.00. Moreover, the results for the pKi on CYP3A4 [2] (setting [3]) and on CYP3A4 [2] (setting [4]) were 7.56 and 8.17, respectively.
`COc1ccncc1NS(=O)(=O)c1ccccc1C(=O)N[C@H](C)C(C)C` [Example 112, N-[(1R)-12-dimethylpropyl]-2-{[(4-methoxypyridin-3-yl)amino]sulfonyl}benzamide]: the pIC50 at CYP3A4 [1] was 7.34. Also, the figures for the pKi on CYP3A4 [2] (setting [3]) and at CYP3A4 [2] (setting [4]) were 6.36 and 6.92, respectively.
In the case of `CCC(C)NC(=O)c1ccccc1S(=O)(=O)Nc1cncc(N)c1` (stereo not drawn) [Example 113, 2-{[(5-aminopyridin-3-yl)amino]sulfonyl}-N-(sec-butyl)benzamide], the pIC50 on CYP3A4 [1] is 7.05. Also, the pKi at CYP3A4 [2] (setting [3]) is 6.16; on CYP3A4 [2] (setting [4]), 7.01.
On to `CN(c1cccnc1)S(=O)(=O)c1ccccc1C(=O)NCc1ccc(F)c(F)c1` [Example 327, N-(3,4-difluorobenzyl)-2-{[methyl(pyridin-3-yl)amino]sulfonyl}benzamide], for which the pKi is 7.06 at CYP3A4 [2] (setting [3]) and 7.70 on CYP3A4 [2] (setting [4]).
Consider `O=C(NCc1ccc(F)c(F)c1)c1ccccc1S(=O)(=O)Nc1cncc(OCc2ccccc2)c1` [Example 393, 2-({[5-(benzyloxy)pyridin-3-yl]amino}sulfonyl)-N-(3,4-diflorobenzyl)benzamide], for which, on CYP3A4 [1], the pIC50 is 8.10.

For the origin of these results see US7868026B2, “Therapeutic compounds” (Pfizer Inc., priority 2005, dated 2011).
